In PubChem BioAssay AID328 (DTP/NCI, 2004):
Values joined by “and” are separate entries in the source; they are usually repeats but may differ in a detail not shown here. Equal entries are not always repeated. Toxic doses and inconclusive results are not listed.

System: BDF1 mice, P388 leukemia ip, median survival T/C
Experiment: NCI In Vivo Anticancer Drug Screen. Data for tumor model P388 Leukemia (intraperitoneal) in B6D2F1 (BDF1) mice
Conditions: endpoint: median survival time, higher = longer survival
In short: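 Read-out is survival of treated animals expressed relative to the vehicle group, as a T/C ratio.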

[1] = dose: 50.0 mg/kg/injection, schedule: Q01DX009 (ip), vehicle: saline with Tween-80
[2] = dose: 100.0 mg/kg/injection, schedule: Q01DX009 (ip), vehicle: saline with Tween-80
[3] = dose: 100.0 mg/kg/injection, schedule: Q04DX003 (ip), vehicle: saline with Tween-80
[4] = dose: 200.0 mg/kg/injection, schedule: Q01DX009 (ip), vehicle: saline with Tween-80
[5] = dose: 200.0 mg/kg/injection, schedule: Q04DX003 (ip), vehicle: saline with Tween-80
[6] = dose: 400.0 mg/kg/injection, schedule: Q01DX009 (ip), vehicle: saline with Tween-80
[7] = dose: 100.0 mg/kg/injection, schedule: Q01DX001 (ip), vehicle: saline with Tween-80
[8] = dose: 200.0 mg/kg/injection, schedule: Q01DX001 (ip), vehicle: saline with Tween-80
[9] = dose: 400.0 mg/kg/injection, schedule: Q01DX001 (ip), vehicle: saline with Tween-80
[10] = dose: 25.0 mg/kg/injection, schedule: Q04DX003 (ip), vehicle: Klucel (hydroxypropylcellulose) (HPC)
[11] = dose: 50.0 mg/kg/injection, schedule: Q04DX003 (ip), vehicle: Klucel (hydroxypropylcellulose) (HPC)
[12] = dose: 100.0 mg/kg/injection, schedule: Q04DX003 (ip), vehicle: Klucel (hydroxypropylcellulose) (HPC)

For `Cc1ccc(S(=O)(=O)N(C)c2cc(Cl)c(C(N)=O)c(Cl)c2)cc1`, the T/C (dose: 6.25 mg/kg/injection, schedule: Q01DX001 (ip), vehicle: saline sonified) was 95 % of control, the T/C (dose: 12.5 mg/kg/injection, schedule: Q01DX001 (ip), vehicle: saline sonified) was 100 % of control and the T/C (dose: 25.0 mg/kg/injection, schedule: Q01DX001 (ip), vehicle: saline sonified) was 100 % of control. The T/C [1] was 112 % of control, the T/C [2] was 95 % of control and the T/C [3] was 105 % of control. The T/C [4] was 114 % of control, the T/C [5] was 97 % of control and the T/C [6] was 95 % of control. For the same compound, the T/C (dose: 400.0 mg/kg/injection, schedule: Q04DX003 (ip), vehicle: saline with Tween-80) was 106 % of control.

`Nc1ccccc1.[C-]#[O+].[C-]#[O+].[C-]#[O+].[C-]#[O+].[C-]#[O+].[Cr]` was tested, and the T/C (dose: 2.5 mg/kg/injection, schedule: Q01DX009 (ip), vehicle: saline) was 91 % of control and the T/C (dose: 5.0 mg/kg/injection, schedule: Q01DX009 (ip), vehicle: saline) was 101 % of control.

With `COC(=O)C(Cc1c[nH]c2ccccc12)NC(=O)C(Cc1c[nH]c2ccccc12)NC(=O)OC(C)(C)C` (stereo not given) the T/C [7] was 90 % of control, the T/C [8] was 86 % of control and the T/C [9] was 90 % of control.

With `Cc1cc(C)c(C)[nH]1` the T/C (dose: 3.12 mg/kg/injection, schedule: Q01DX009 (ip), vehicle: water) was 87 % of control, the T/C (dose: 6.25 mg/kg/injection, schedule: Q01DX009 (ip), vehicle: water) was 111 % of control and the T/C (dose: 12.5 mg/kg/injection, schedule: Q01DX009 (ip), vehicle: water) was 105 % of control. The T/C (dose: 12.5 mg/kg/injection, schedule: Q04DX003 (ip), vehicle: water) was 91 % of control, the T/C (dose: 25.0 mg/kg/injection, schedule: Q01DX009 (ip), vehicle: water) was 103 % of control and the T/C (dose: 25.0 mg/kg/injection, schedule: Q04DX003 (ip), vehicle: water) was 114 % of control. The T/C (dose: 50.0 mg/kg/injection, schedule: Q01DX009 (ip), vehicle: water) was 97 % of control and the T/C (dose: 50.0 mg/kg/injection, schedule: Q04DX003 (ip), vehicle: water) was 107 % of control.

With `ClCCN(CCCl)c1ccc(C=Nc2ccc(/C=C\c3ccncc3)cc2)cc1` the T/C (dose: 12.5 mg/kg/injection, schedule: Q01DX009 (ip), vehicle: saline with Tween-80) was 115 % of control, the T/C (dose: 25.0 mg/kg/injection, schedule: Q01DX009 (ip), vehicle: saline with Tween-80) was 101 % of control and the T/C [1] was 98 % of control. The T/C [2] was 89 % of control.

`COc1ccc2c(c1)CCC1C2CCC2(C)/C(=N/O)C3OC3C12` (stereo not given) was tested, and the T/C [1] was 121 % of control, the T/C [2] was 111 % of control and the T/C [4] was 111 % of control.

`O=C(O)C(O)C(O)C1[O][Sb][O]C1CO` (stereo not given) was tested, and the T/C (dose: 22.0 mg/kg/injection, schedule: Q04DX003 (ip), vehicle: saline) was 110 % of control, the T/C (dose: 50.0 mg/kg/injection, schedule: Q01DX009 (ip), vehicle: saline) was 150 % of control and the T/C (dose: 75.0 mg/kg/injection, schedule: Q01DX009 (ip), vehicle: saline) was 155 % of control. The T/C (dose: 100.0 mg/kg/injection, schedule: Q01DX009 (ip), vehicle: saline) was 166 % of control, the T/C (dose: 150.0 mg/kg/injection, schedule: Q01DX009 (ip), vehicle: saline) was 155 % of control and the T/C (dose: 150.0 mg/kg/injection, schedule: Q04DX003 (ip), vehicle: saline) was 177 % of control. The T/C (dose: 225.0 mg/kg/injection, schedule: Q01DX009 (ip), vehicle: saline) was 150 % of control and 183 % of control.

In the case of `CCn1cnc2c(=S)nc(N)[nH]c21`, the T/C (dose: 3.12 mg/kg/injection, schedule: Q01DX009 (ip), vehicle: Klucel (hydroxypropylcellulose) (HPC)) is reported as 100 % of control, the T/C (dose: 6.25 mg/kg/injection, schedule: Q01DX009 (ip), vehicle: Klucel (hydroxypropylcellulose) (HPC)) is reported as 118 % of control and the T/C (dose: 12.5 mg/kg/injection, schedule: Q01DX009 (ip), vehicle: Klucel (hydroxypropylcellulose) (HPC)) is reported as 90 % of control. For the same compound, the T/C [10] was 100 % of control, the T/C [11] was 100 % of control and the T/C [12] was 104 % of control.

For `CC(=O)[O][Pb]([O]C(C)=O)([c]1ccccc1)[c]1ccccc1`, the T/C (dose: 44.0 mg/kg/injection, schedule: Q01DX009 (ip), vehicle: saline with Tween-80) was 177 % of control, the T/C (dose: 66.0 mg/kg/injection, schedule: Q01DX009 (ip), vehicle: saline with Tween-80) was 184 % of control and the T/C [2] was 201 % of control. For the same compound, the T/C (dose: 150.0 mg/kg/injection, schedule: Q01DX009 (ip), vehicle: saline with Tween-80) was 93 % of control.

With `COc1cc(/C=N/Nc2ccc([N+](=O)[O-])cc2)cc(OC)c1OC` the T/C (dose: 50.0 mg/kg/injection, schedule: Q04DX003 (ip), vehicle: saline with Tween-80) was 100 % of control, the T/C [2] was 95 % of control and the T/C [3] was 95 % of control. The T/C [4] was 95 % of control, the T/C [5] was 105 % of control and the T/C [6] was 100 % of control.

With `COC(OC)C1=C(Cl)C(Cl)=C(Cl)/C1=N\Nc1ccccc1` the T/C [7] was 109 % of control and the T/C [8] was 86 % of control.

In the case of `CN1C(C)(C)CC(O)(C(O)(c2ccccc2)c2ccccc2)CC1(C)C`, the T/C (dose: 12.5 mg/kg/injection, schedule: Q04DX003 (ip), vehicle: Klucel (hydroxypropylcellulose) (HPC)) is reported as 109 % of control, the T/C [10] is reported as 109 % of control and the T/C [11] is reported as 113 % of control.

With `C/C=C/c1ccc2ccc[n+](C)c2c1O` the T/C (dose: 22.0 mg/kg/injection, schedule: Q04DX003 (ip), vehicle: saline sonified) was 100 % of control, the T/C (dose: 25.0 mg/kg/injection, schedule: Q04DX003 (ip), vehicle: saline sonified) was 110 % of control and the T/C (dose: 33.0 mg/kg/injection, schedule: Q04DX003 (ip), vehicle: saline sonified) was 113 % of control. The T/C (dose: 75.0 mg/kg/injection, schedule: Q04DX003 (ip), vehicle: saline sonified) was 118 % of control.

In the case of `CC(C(Nc1ccc(C(=O)O)cc1)C(F)(F)C(F)(F)C(F)(F)F)[N+](=O)[O-]` (stereo not given), the T/C [7] is reported as 95 % of control, the T/C [8] is reported as 104 % of control and the T/C [9] is reported as 100 % of control.

With `O=C(CN1CC1)NCCCCCCCCCNC(=O)CN1CC1` the T/C (dose: 8.0 mg/kg/injection, schedule: Q04DX003 (ip), vehicle: saline) was 122 % of control, the T/C (dose: 12.0 mg/kg/injection, schedule: Q04DX003 (ip), vehicle: saline) was 122 % of control and the T/C (dose: 18.0 mg/kg/injection, schedule: Q04DX003 (ip), vehicle: saline) was 122 % of control. The T/C (dose: 18.75 mg/kg/injection, schedule: Q04DX003 (ip), vehicle: saline sonified) was 218 % of control and the T/C (dose: 37.5 mg/kg/injection, schedule: Q04DX003 (ip), vehicle: saline sonified) was 172 % of control.

`CCN(c1ccc2c(c1)C(=O)c1ccccc1-2)S(=O)(=O)c1ccc(C)cc1` was tested, and the T/C [12] was 100 % of control, the T/C (dose: 200.0 mg/kg/injection, schedule: Q04DX003 (ip), vehicle: Klucel (hydroxypropylcellulose) (HPC)) was 104 % of control and the T/C (dose: 400.0 mg/kg/injection, schedule: Q04DX003 (ip), vehicle: Klucel (hydroxypropylcellulose) (HPC)) was 95 % of control.

With `NC(CS/C(Cl)=C/Cl)C(=O)O` (stereo not given) the T/C (dose: 1.5 mg/kg/injection, schedule: Q01DX009 (ip), vehicle: saline) was 95 % of control, the T/C (dose: 3.0 mg/kg/injection, schedule: Q01DX009 (ip), vehicle: saline) was 100 % of control and 109 % of control and the T/C (dose: 6.0 mg/kg/injection, schedule: Q01DX009 (ip), vehicle: saline) was 92 % of control and 95 % of control. The T/C (dose: 7.4 mg/kg/injection, schedule: Q01DX009 (ip), vehicle: saline) was 109 % of control, the T/C (dose: 11.0 mg/kg/injection, schedule: Q01DX009 (ip), vehicle: saline) was 113 % of control and the T/C (dose: 12.0 mg/kg/injection, schedule: Q01DX009 (ip), vehicle: saline) was 90 % of control. The T/C (dose: 16.0 mg/kg/injection, schedule: Q04DX003 (ip), vehicle: saline) was 120 % of control, the T/C (dose: 17.0 mg/kg/injection, schedule: Q01DX009 (ip), vehicle: saline) was 152 % of control and the T/C (dose: 25.0 mg/kg/injection, schedule: Q04DX003 (ip), vehicle: saline) was 120 % of control. The T/C (dose: 27.0 mg/kg/injection, schedule: Q01DX009 (ip), vehicle: saline) was 168 % of control and the T/C (dose: 35.0 mg/kg/injection, schedule: Q04DX003 (ip), vehicle: saline) was 104 % of control.

For `CCSc1ncc(Br)c(Sc2nc(N)nc3nc[nH]c23)n1`, the T/C [3] was 86 % of control.
